From a melting point compilation (Tetko et al.) come the findings set out here.

In the case of `O=C(Nc1ccccc1)C(c1ccccc1)c1ccccc1`, the melting point was 177 °C.

With `CCCC(C1CCCCC1)C1CCCCC1`, the melting point is -10.5 °C. The result for `CC(C)=CCCC(C)C1CCC2C3CC=C4CC(O)CCC4(C)C3CCC12C` (centres undefined) reads 122 °C.

Regarding `Clc1c(Br)c(Br)c2c(c1Br)Oc1c(Br)c(Br)c(Cl)c(Br)c1O2`, the melting point came out at 385 °C. The result for `Cc1nc(-c2cccc(N)c2)cs1` reads 101 to 103 °C. Take `COC(=O)c1scc(Br)c1OC`: the melting point fell in the range of 73 to 74 °C.

In the case of `CC(=O)OC1CCC2C3CCC4=CC(=O)CCC4(C)C3CCC12C` (centres undefined), the melting point was determined as 140 °C. As to `NC(Cc1ccc(Cl)cc1)C(=O)O` (centres undefined), the melting point was 260 °C.

Turning to `Nc1c(Cl)c(Cl)nc(Cl)c1Cl`, the melting point was in the range of 212 to 215 °C. On to `O=C(CBr)c1cc(-c2ccc(Cl)cc2Cl)no1`, for which the melting point was in the range of 85 to 87 °C. The same measure for `NC(=O)Cc1nc(-c2ccccc2)cs1`: 193 to 194 °C; for `Oc1ccc(Br)c(O)c1`: 103 °C. The same measure for `Clc1ccc(Br)nc1`: 65 to 69 °C; for `COC(=O)c1cc(Br)c(Br)s1`: 79 °C.

Consider `C/C=C/Cl`, for which the melting point is -99 °C.

Compound `O=C(CC(c1ccccc1)c1ccccc1)c1ccccc1` registered a melting point of 96 °C.

Take `c1ccc(C2=NOC(c3ccccc3)C2)cc1` (centres undefined): the melting point amounted to 75 °C. The result for `O=C(CBr)c1ccnc(Cl)c1` reads 55 to 56.5 °C; that for `N#Cc1ccc(Oc2ccc(C(F)(F)F)cc2N)cc1`, 106 to 108 °C. As to `CCOCCOC(=O)C(C)Oc1ccc(Oc2ncc(C(F)(F)F)cc2Cl)cc1` (centres undefined), the melting point stood at 60 °C.

The compound `O=c1ccoc2ccccc12` yielded a melting point of 59 °C. The result for `CC(=O)c1ccc(NC(=O)C(C(F)(F)F)(C(F)(F)F)C(F)(F)F)cc1` reads 223 to 225 °C; that for `CC(=NO)c1ccc(Cl)c(Cl)c1`, 108 to 111 °C.

In turn, `NCS(=O)(=O)O` displayed a melting point of 180 to 185 °C. Consider `CNC(=S)C#N`, for which the melting point lay in the range of 37 to 46 °C. As to `O=C(C1=NOC2C(=O)N(c3ccc(F)cc3)C(=O)C12)c1ccccc1` (centres undefined), the melting point turned out to be 156 °C.

In turn, `Cn1ncc(Br)c1N` showed a melting point of 104 to 105 °C. The same measure for `O=C(c1ccccc1)c1cnc2ccc(Br)cn2c1=O`: 208 to 210 °C.

`Cc1nc(N)ccc1[N+](=O)[O-]` returned a melting point of 185 to 189 °C. The result for `C=CCn1c(N)cc(=O)n(CC)c1=O` reads 143 °C; that for `CC(=O)c1cc2c(cc1N)OCO2`, 168 to 171 °C; that for `CC1CC(C)CC(O)C1` (centres undefined), 11.6 °C.

On to `Cn1nc(-c2ccco2)cc1C(=O)O`, for which the melting point turned out to be 130 °C. In the case of `CCCC(CCC)C(=O)O`, the melting point was 125 °C.

Consider `CC(Br)C(C)Br` (centres undefined), for which the melting point is -24 °C. The same measure for `O=C(Nc1nccs1)C(F)(F)C(F)(F)C(F)(F)C(F)(F)C(F)(F)C(F)(F)C(F)(F)C(F)(F)F`: 146 °C; for `O=[N+]([O-])c1cc(S(=O)(=O)Nc2ccccc2)ccc1Nc1ccccc1`: 156 °C; for `CN1CCN(c2cccc(C(=O)O)c2)CC1`: 187 to 190 °C. `NCc1ccc(Cl)nc1` displayed a melting point of 30 °C. The result for `CCN=C=S` reads -5.9 °C; that for `CC1=C(C)S(=O)(=O)CCS1(=O)=O`, 168 °C; that for `CSc1cc2c(c3c1CCc1ccccc1-3)c(=O)n(-c1ccccc1)n2C`, 181 °C. The same measure for `NCc1ccc(-n2cccn2)cc1`: 75 to 78 °C; for `NCc1ccccc1-n1cccc1`: 156 to 157 °C. The result for `Nc1cccnc1Oc1ccc(F)cc1F` reads 96 to 97 °C.

Turning to `CC(=O)OC(c1ccccc1)C(Cl)(Cl)Cl` (centres undefined), the melting point was 87.5 °C. Consider `CSC(S)=NCc1ccc(CN)cc1`, for which the melting point fell in the range of 152 to 153 °C. The result for `CC(C)CCCCCOC(=O)c1ccccc1C(=O)OCCCCCC(C)C` reads -4 °C; that for `O=S(=O)(Cl)c1cccc2nonc12`, 77 to 78 °C; that for `CN1C(=O)C=CC1=O`, 95 °C.

`c1ccc(CC(=NNc2ccccc2)/C(Cc2ccccc2)=N\Nc2ccccc2)cc1`: the melting point turned out to be 181 °C. The same measure for `Cc1c(C)c(C)c2c(c1C)CCC2=O`: 154 °C; for `Cn1cnc(C#N)c1C#N`: 85 °C.

Consider `C[C@@H](O)c1ccncc1`, for which the melting point lay within 68 to 70 °C. `N#Cc1c(Cl)cccc1Oc1ccccc1`: the melting point was 61 °C. The compound `Cc1c(C)c(C)c(S(=O)(=O)Cl)c(C)c1C` returned a melting point of 80 °C. The same measure for `COc1ccccc1C1CCNCC1`: 54 to 55 °C; for `CN1C2CCC1CC(OC(=O)c1ccccc1)C2` (centres undefined): 49 °C; for `Ic1ccc(N2CCOCC2)nc1`: 133 °C. `CC(C)(C)OC(=O)N[C@H](C(=O)O)c1ccc(F)cc1` registered a melting point of 130 °C. The same measure for `C/C=C(C)/C=C/C=C(C)C`: -35.4 °C. In turn, `CC(NC(=O)OC(C)(C)C)C(=O)N1CCCC1C(=O)OCc1ccccc1` (centres undefined) showed a melting point of 68 to 70 °C.

As for `Cc1n[nH]cc1[N+](=O)[O-]`, the melting point stood at 133 °C. As for `O=C1NCCO1`, the melting point turned out to be 87 °C.

As to `O=[N+]([O-])c1cc(C(F)(F)F)ccc1Oc1ccccc1Br`, the melting point was 58 to 62 °C. The same measure for `CCNCCO`: -6 °C; for `c1ccc(C2=NN(c3ccccc3)C2)cc1`: 138 °C. The same measure for `Cc1c(C)c([N+](=O)[O-])c(C)c2c1C(=O)C2`: 164 °C; for `NNC(=O)c1cccc(O)c1`: 158 °C. The result for `CC(=O)OCC#CCOC(C)=O` reads 28 °C. Take `CC(C(=O)O)P(=O)(O)O` (centres undefined): the melting point was 120 °C. The same measure for `CCC(C)c1ccccc1` (centres undefined): -75 °C; for `C[C@H](O)CC[C@H](C)O`: 53 °C; for `CC(=O)N[C@@H](C)C(=O)N[C@@H](C)C(=O)N[C@@H](C)C(=O)O`: 248 °C. The result for `CCC(C)(Cl)Cl` reads -74 °C.

As for `Clc1cc2oc3ccc(Cl)c(Cl)c3c2cc1Cl`, the melting point came out at 210 °C. The result for `CCCCCCCCCCCCCC(=O)Oc1ccc(N=Cc2ccc(N(C)C)cc2)cc1` reads 106 °C; that for `c1n[nH]c2c1CCCC2`, 82 °C; that for `COC(=O)CC1C(=O)NC(C)=C1C(=O)OC` (centres undefined), 93 to 94 °C. The result for `CC12CCC(=O)C=C1CCC1C2CCC2(C)C1CCC2(O)C(=O)CO` (centres undefined) reads 215 °C; that for `NNC(=O)c1ccccc1F`, 73 °C; that for `c1ccc2cc(SSc3ccc4ccccc4c3)ccc2c1`, 140 °C.

As to `N#Cc1nc(C#N)nc(C#N)n1`, the melting point is 119 °C. The result for `CC(=O)N1CCc2ccccc21` reads 102 to 104 °C.

A word on the melting point: it is the temperature, or range, at which the solid turns liquid.
